From PMC10222987 (Viruses, 2023)
Where two headings read alike, the source gives them in different places.

Columns and labels:
[1] = system: H3N2 (rgA/Victoria/3/75) WT; conditions: cited from earlier work
H1N1pdm09.WT = conditions: mouse, in vivo
[2] = hamster, in vivo, sc
H1N1 (rgA/WSN/33) WT [3] = conditions: cited from earlier work
[4] = system: H1N1pdm09 (A/Osaka/129/2009) WT; test: microbe, parasite or virus in culture; format: cell-based; conditions: Influenza A virus, read-out: EC50 Mean
[5] = BALB/c, mouse, in vivo; for C24 (plasma concentration at 24 h): sc
H1N1 (rgA/WSN/33) WT [6] = conditions: cited from earlier work; remark: listed apart in the source
[7] = system: H3N2 (rgA/Victoria/3/75) WT; conditions: cited from earlier work; remark: listed apart in the source

Compound: O=C1c2c(O)c(=O)ccn2N([C@@H]2c3ccccc3SCc3c2ccc(F)c3F)[C@@H]2COCCN12 [baloxavir acid]
- EC50 [1]: 1130 pM
- Lung virus titer (H1N1pdm09.WT): almost to the LLOQ
- C24 (plasma concentration at 24 h) ([2]; 10 mg/kg): 17.3 ± 3.3 ng/mL
- C24 (plasma concentration at 24 h) ([2]; 30 mg/kg): 45.7 ± 19.7 ng/mL
- EC50 (H1N1 (rgA/WSN/33) WT [3]): 420 pM
- EC50 [4]: 610 pM
- C24 of a simulated dose [5]: 78.3 ng/mL
- C24 (plasma concentration at 24 h) ([5]; 20 mg/kg): 47.4 ± 4.9 ng/mL
- C24 (plasma concentration at 24 h) ([5]; 30 mg/kg): 70.8 ± 13.9 ng/mL

Compound: CCC(CC)O[C@@H]1C=C(C(=O)O)C[C@H](N)[C@H]1NC(C)=O [oseltamivir acid]
- IC50 (H1N1 (rgA/WSN/33) WT [6]): 800 pM
- IC50 [7]: 130 pM

Compound: CCOC(=O)C1=C[C@@H](OC(CC)CC)[C@H](NC(C)=O)[C@@H](N)C1 [oseltamivir phosphate]
- Lung virus titers vs vehicle (H1N1pdm09.WT): statistically lower compared with vehicle
